According to US20110021515A1, “DIHYROFUROPYRMINDINE COMPOUNDS” (TAKEDA PHARMACEUTICAL COMPANY LIMITED, priority 2009, published 2011):

What follows are molecules tested against T1, human mTOR (Homo sapiens, UniProt P42345) (assay: Inhibition of mTOR (LanthaScreen TR-FRET, GFP-4E-BP1 substrate)). Conditions: purified mTor, GFP-4E-BP1 and ATP, 30 min at room temperature; read-out: pIC50 for inhibition of human mTOR in the assay of Example A (converted).
T1 construct: purchased Invitrogen
Format: biochemical
Experimental: Example A Inhibition of mTOR
Purified mTor are purchased from Invitrogen. mTor activity was determined using Invitrogen's LanthaScreen system. The inhibitory properties of compounds relative to mTor may be determined using a black 384-well-plate format in the following buffer 50 mM Hepes, 10 mM NaCl, 10 mM MgCl2, 0.2 mM EDTA, 0.01% Brij35, 2 mM DTT at pH7.3. The test compound is prepared in DMSO using 2 fold serial dilutions for 11 data points which are added to the buffer so that each dilution contains 3% DMSO.
An assay for mTor inhibition is as follows:
Combine in each well 2 μl of 1.2 μM GFP-4E-BP1 (Invitrogen) and 150 μM ATP (in buffer), 2 μl of diluted test compound (3% DMSO in buffer), and 2 μl of 6 nM mTor in buffer. The reaction mixture is then incubated at room temperature for 30 min, and quenched by adding 40 mM ETDA with 4 nM Tb-anti-p4E-BP1 [pThr46] antibody in TR-FRET dilution buffer (Invitrogen). The plate is kept at room temperature for 1 hour and then read using PheraStar (BMG labtech) LanthaScreen mode.
pIC50 values, the negative of the log of the IC50, are calculated by non-linear curve fitting of the compound concentrations and percent of inhibition to the standard pIC50 equation.

`CNC(=O)Nc1ccc(-c2nc(N3CCOCC3)c3c(n2)C(C)(C)CO3)cc1` [Example 2, 1-(4-(7,7-dimethyl-4-morpholino-6,7-dihydrofuro[3,2-d]pyrimidin-2-yl)phenyl)-3-methylurea] and `CNC(=O)Nc1ccc(-c2nc(N3CCOCC3)c3c(n2)C(C)(C)OC3)cc1` [Example 8, 1-(4-(7,7-dimethyl-4-morpholino-5,7-dihydrofuro[3,4-d]pyrimidin-2-yl)phenyl)-3-methylurea] cannot be ordered by IC50: under 31.6 nM for the first, under 31.6 nM for the second.

`CNC(=O)Nc1ccc(-c2nc(N3CC4CCC(C3)O4)c3c(n2)C(C)(C)CO3)cc1` [Example 4, 1-(4-(4-(8-oxa-3-azabicyclo[3.2.1]octan-3-yl)-7,7-dimethyl-6,7-dihydrofuro[3,2-d]pyrimidin-2-yl)phenyl)-3-methylurea] and `CNC(=O)Nc1ccc(-c2nc(N3CC4CCC(C3)O4)c3c(n2)C(C)(C)OC3)cc1` [Example 6, 1-(4-(4-(8-oxa-3-azabicyclo[3.2.1]octan-3-yl)-7,7-dimethyl-5,7-dihydrofuro[3,4-d]pyrimidin-2-yl)phenyl)-3-methylurea] cannot be ordered by IC50: under 31.6 nM for the first, under 31.6 nM for the second.

First: CCNC(=O)Nc1ccc(-c2nc(N3CC4CCC(C3)O4)c3c(n2)C(C)(C)OC3)cc1 [Example 9, 1-(4-(4-(8-oxa-3-azabicyclo[3.2.1]octan-3-yl)-7,7-dimethyl-5,7-dihydrofuro[3,4-d]pyrimidin-2-yl)phenyl)-3-ethylurea]
Second: CNC(=O)Nc1ccc(-c2nc(N3CC4CCC(C3)O4)c3c(n2)C(C)(O)OC3)cc1 (stereo not drawn) [Example 12, 1-(4-(4-(8-oxa-3-azabicyclo[3.2.1]octan-3-yl)-7-hydroxy-7-methyl-5,7-dihydrofuro[3,4-d]pyrimidin-2-yl)phenyl)-3-methylurea]
The IC50 of the first is lower: under 31.6 nM for the first, 31.6 to 1000 nM for the second.

`CCNC(=O)Nc1ccc(-c2nc(N3CCOCC3)c3c(n2)C(C)(C)OC3)cc1` [Example 10] and `CCNC(=O)Nc1ccc(-c2nc(N3CCOCC3)c3c(n2)C2(CC2)OC3)cc1` [Example 14, 1-ethyl-3-(4-(4′-morpholino-5′H-spiro[cyclopropane-1,7′-furo[3,4-d]pyrimidine]-2′-yl)phenyl)urea] cannot be ordered by IC50: under 31.6 nM for the first, under 31.6 nM for the second.

`CC1(C)OCc2c(N3CCOCC3)nc(-c3ccc(NC(=O)NC4CC4)cc3)nc21` [Example 11, 1-cyclopropyl-3-(4-(7,7-dimethyl-4-morpholino-5,7-dihydrofuro[3,4-d]pyrimidin-2-yl)phenyl)urea] and `O=C(Nc1ccc(-c2nc(N3CCOCC3)c3c(n2)C2(CC2)OC3)cc1)NC1CC1` [Example 15, 1-cyclopropyl-3-(4-(4′-morpholino-5′H-spiro[cyclopropane-1,7′-furo[3,4-d]pyrimidine]-2′-yl)phenyl)urea] cannot be ordered by IC50: under 31.6 nM for the first, under 31.6 nM for the second.

`CNC(=O)Nc1ccc(-c2nc(N3CC4CCC(C3)O4)c3c(n2)C2(CC2)OC3)cc1` [Example 13, 1-(4-(4′-(8-oxa-3-azabicyclo[3.2.1]octan-3-yl)-5′H-spiro[cyclopropane-1,7′-furo[3,4-d]pyrimidine]-2′-yl)phenyl)-3-methylurea] and `CNC(=O)Nc1ccc(-c2nc(N3CCOCC3)c3c(n2)C2(CC2)OC3)cc1` [Example 16, 1-methyl-3-(4-(4′-morpholino-5′H-spiro[cyclopropane-1,7′-furo[3,4-d]pyrimidine]-2′-yl)phenyl)urea] cannot be ordered by IC50: under 31.6 nM for the first, under 31.6 nM for the second.
